# Measured values taken from patent publication US20130030017A1, “QUINOLINE DERIVATIVES AS ANTIBACTERIAL AGENTS” (priority 2005, published 2013).
# How the values were obtained:
# [1] = tested on: Enterococcus faecalis (ATCC29212); assay: Microtitre plate assay, IC90 determination (EFA 29212); assay type: cell-based; conditions: 90% inhibitory concentration for bacterial growth, 37° C., resazurin fluorescence; for IC90 EFA 29212: 24 hours; for IC90: Enterococcus faecalis, ATCC29212, 24 h
# Method: (§1) The bacteria used in this study were grown overnight in flasks containing 100 ml Mueller-Hinton Broth (Becton Dickinson—cat. no. 275730) in sterile de-ionized water, with shaking, at 37° C. Stocks (0.5 ml/tube) were stored at −70° C. until use. Bacteria titrations were performed in microtiter plates and colony forming units (CFUs) were determined. In general, an inoculum level of approximately 100 CFUs was used for susceptibility testing.
# (§2) Flat-bottom, sterile 96-well plastic microtiter plates were filled with 180 μl of sterile deionized water, supplemented with 0.25% BSA. Subsequently, stock solutions (7.8× final test concentration) of compounds were added in 45 μl volumes in column 2 Serial five-fold dilutions (45 μl in 180 μl) were made directly in the microtiter plates from column 2 to reach column 11. Untreated control samples with (column 1) and without (column 12) inoculum were included in each microtiter plate. Depending on the bacteria type, approximately 10 to 60 CFU per well of bacteria inoculum (100 TCID50), in a volume of 100 μl in 2.8× Mueller-Hinton broth medium, was added to the rows A to H, except column 12. The same volume of broth medium without inoculum was added to column 12 in row A to H. The cultures were incubated at 37° C. for 24 hours under a normal atmosphere (incubator with open air valve and continuous ventilation). At the end of incubation, one day after inoculation, the bacterial growth was quantitated fluorometrically. Therefore resazurin (0.6 mg/ml) was added in a volume of 20 μl to all wells 3 hours after inoculation, and the plates were re-incubated overnight. A change in colour from blue to pink indicated the growth of bacteria. The fluorescence was read in a computer-controlled fluorometer (Cytofluor Biosearch) at an excitation wavelength of 530 nm and an emission wavelength of 590 nm. The % growth inhibition achieved by the compounds was calculated according to standard methods. The IC90 (expressed in μg/ml) was defined as the 90% inhibitory concentration for bacterial growth.
# [2] = tested on: Pseudomonas aeruginosa (ATCC27853); assay: Microtitre plate assay, IC90 determination (PAE 27853); assay type: cell-based; conditions: 90% inhibitory concentration for bacterial growth, 37° C., resazurin fluorescence; for IC90 PAE 27853: 24 hours; for IC90: Pseudomonas aeruginosa, ATCC27853, 24 h
# Method: as §1, §2
# [3] = tested on: Streptococcus pneumoniae (ATCC6305); assay: Microtitre plate assay, IC90 determination (SPN 6305); assay type: cell-based; conditions: 90% inhibitory concentration for bacterial growth, 37° C., resazurin fluorescence; for IC90 SPN 6305: 24 hours; for IC90: Streptococcus pneumoniae, ATCC6305, 24 h
# Method: as §1, §2
# [4] = tested on: Streptococcus pyogens (ATCC8668); assay: Microtitre plate assay, IC90 determination (SPY 8668); assay type: cell-based; conditions: 90% inhibitory concentration for bacterial growth, 37° C., resazurin fluorescence; for IC90 SPY 8668: 24 hours; for IC90: Streptococcus, ATCC8668, 24 h
# Method: as §1, §2
# [5] = tested on: Staphylococcus aureus (ATCC29213); assay: Microtitre plate assay, IC90 determination (STA 29213); assay type: cell-based; conditions: 90% inhibitory concentration for bacterial growth, 37° C., resazurin fluorescence; for IC90 STA 29213: 24 hours; for IC90: Staphylococcus aureus, ATCC29213, 24 h
# Method: as §1, §2
# [6] = tested on: methicilline resistant Staphylococcus aureus (MRSA) (a clinical isolate from the University of Antwerp); assay: Microtitre plate assay, IC90 determination (STA RMETH); assay type: cell-based; conditions: 90% inhibitory concentration for bacterial growth, 37° C., 24 hours, resazurin fluorescence
# Method: as §1, §2
Compound,IC90 EFA 29212 [1],IC90 PAE 27853 [2],IC90 SPN 6305 [3],IC90 SPY 8668 [4],IC90 STA 29213 [5],IC90 STA RMETH [6],melting point,IC90 [1],IC90 [2],IC90 [3],IC90 [5],IC90 [4]
COc1nc2ccc(Br)cc2cc1C(c1ccc(Cl)cc1)C(O)(CCc1ccccc1)CCN(C)C (centres unmarked) [Compound 70],56.8 µg/mL,45.1 µg/mL,1.8 µg/mL,45.1 µg/mL,1.8 µg/mL,12.7 µg/mL,,,,,,
COc1nc2ccc(Br)cc2cc1C(c1ccccc1)C(O)(CCc1ccc(F)cc1)CCN1CCCCC1 (centres unmarked) [Compound 34],,,9.4 µg/mL,,59.2 µg/mL,,194 °C,,,,,
COc1ccc(CCC(O)(CCN(C)C)C(c2ccc(Cl)cc2)c2cc3cc(Br)ccc3nc2OC)cc1 (centres unmarked) [Compound 21],1.9 µg/mL,1.9 µg/mL,2.1 µg/mL,1.9 µg/mL,1.9 µg/mL,,142 °C,,,,,
COc1nc2ccc(C)cc2cc1C(c1ccccc1)C(O)(CCc1ccccc1)CCN(C)C (centres unmarked) [Compound 1],,,,7.4 µg/mL,,,142 °C,37.2 µg/mL,18.7 µg/mL,1.9 µg/mL,9.4 µg/mL,
COc1nc2ccc(Br)cc2cc1C(c1ccccc1)C(O)(CCN(C)C)Cc1cccc2ccccc12 (centres unmarked) [Compound 41],,,,,57.0 µg/mL,,112 °C,,,2.3 µg/mL,,
COc1nc2ccc(Br)cc2cc1C(c1ccccc1)C(O)(CCc1ccc(C)cc1)CCN(C)C (racemic) [Compound 53],6.9 µg/mL,3.9 µg/mL,1.7 µg/mL,1.7 µg/mL,1.7 µg/mL,13.8 µg/mL,,,,,,
COc1nc2ccc(Br)cc2cc1C(c1ccc(C)cc1)C(O)(CCc1ccccc1)CCN(C)C (centres unmarked) [Compound 66],9.7 µg/mL,43.5 µg/mL,0.8 µg/mL,1.7 µg/mL,1.7 µg/mL,12.3 µg/mL,,,,,,
COc1nc2ccc(Br)cc2cc1C(c1ccccc1)C(O)(CCc1cccc2ccccc12)CCN(C)C (centres unmarked) [Compound 7],,,46.4 µg/mL,,52.0 µg/mL,,206 °C,,,,,
COc1nc2ccccc2cc1C(c1ccccc1)C(O)(CCc1ccccc1)CCN(C)C (centres unmarked) [Compound 12],,,,,,,122 °C,,,9.1 µg/mL,10.2 µg/mL,
COc1nc2ccc(Cl)cc2cc1C(c1ccccc1)C(O)(CCc1ccccc1)CCN(C)C (centres unmarked) [Compound 9],,,,,,,172 °C,,,1.7 µg/mL,24.5 µg/mL,
CNCCC(O)(CCc1ccc(F)cc1)C(c1ccccc1)c1cc2cc(Br)ccc2nc1OC (centres unmarked) [Compound 39],,,,,,,140 °C,,,0.3 µg/mL,1.7 µg/mL,
COc1nc2cccc(Br)c2cc1C(c1ccccc1)C(O)(CCc1ccccc1)CCN(C)C (centres unmarked) [Compound 5],,,4.8 µg/mL,,23.8 µg/mL,,156 °C,53.4 µg/mL,53.4 µg/mL,,,42.4 µg/mL
COc1nc2ccc(C)cc2cc1C(c1ccccc1)C(O)(CCc1ccccc1)CCN(C)C (centres unmarked) [Compound 2],37.2 µg/mL,37.2 µg/mL,1.9 µg/mL,37.2 µg/mL,7.4 µg/mL,,,,,,,
CNCCC(O)(CCc1ccc(F)cc1)C(c1ccccc1)c1cc2ccccc2nc1OC (centres unmarked) [Compound 37],,,,,,,134 °C,,,0.3 µg/mL,2.9 µg/mL,
CCOCCOCCOc1nc2ccc(Br)cc2cc1C(c1ccccc1)C(O)(CCc1ccccc1)CCN(C)C (centres unmarked) [Compound 43],,10.1 µg/mL,,,10.1 µg/mL,,94 °C,10.1 µg/mL,,2.3 µg/mL,,10.1 µg/mL
COc1nc2ccc(-c3cccs3)cc2cc1C(c1ccccc1)C(O)(CCc1ccccc1)CCN(C)C (racemic) [Compound 63],19.0 µg/mL,8.5 µg/mL,2.1 µg/mL,21.4 µg/mL,10.7 µg/mL,,,,,,,
CSc1nc2ccc(Br)cc2cc1C(c1ccccc1)C(O)(CCc1ccccc1)CCN(C)C (centres unmarked) [Compound 10],,,9.8 µg/mL,,,,191 °C,,,,13.8 µg/mL,
CSc1nc2ccc(C)cc2cc1C(c1ccccc1)C(O)(CCc1ccccc1)CCN(C)C (centres unmarked) [Compound 29],,,7.7 µg/mL,,48.5 µg/mL,,180 °C,,,,,
CCOCCOCCOc1nc2ccc(Br)cc2cc1C(c1ccccc1)C(O)(CCc1ccccc1)CCN(C)C (centres unmarked) [Compound 44],10.1 µg/mL,4.5 µg/mL,4.5 µg/mL,8.0 µg/mL,22.6 µg/mL,,,,,,,
COc1nc2cccc(Br)c2cc1C(c1ccccc1)C(O)(CCc1ccccc1)CCN(C)C (centres unmarked) [Compound 6],,,1.7 µg/mL,,8.5 µg/mL,,126 °C,,,,,
COc1nc2ccc(Br)cc2cc1C(c1cccc(Cl)c1)C(O)(CCc1ccccc1)CCN(C)C (centres unmarked) [Compound 67],56.8 µg/mL,56.8 µg/mL,2.3 µg/mL,56.8 µg/mL,2.3 µg/mL,,,,,,,
COc1ccc(CCC(O)(CCN(C)C)C(c2ccc(Cl)cc2)c2cc3cc(Br)ccc3nc2OC)cc1 (centres unmarked) [Compound 22],9.5 µg/mL,,0.4 µg/mL,,,,,,1.9 µg/mL,,1.9 µg/mL,1.9 µg/mL
COc1nc2ccc(Br)cc2cc1C(c1ccccc1)C(O)(CCc1ccc(F)cc1)CCN1CCCCC1 (centres unmarked) [Compound 35],,,3.7 µg/mL,,,,,59.2 µg/mL,59.2 µg/mL,,59.2 µg/mL,9.4 µg/mL
COc1nc2ccc(Br)cc2cc1C(c1ccccc1)C(O)(CCc1ccccc1Cl)CCN(C)C (racemic) [Compound 54],4.5 µg/mL,2.0 µg/mL,2.3 µg/mL,2.0 µg/mL,10.1 µg/mL,,,,,,,
CSc1nc2ccc(Br)cc2cc1C(c1ccc(Cl)cc1)C(O)(CCc1ccccc1)CCN(C)C (centres unmarked) [Compound 32],,,2.1 µg/mL,,9.3 µg/mL,,222 °C,,,,,
